These results are taken from ChEMBL document CHEMBL1201862, “PubChem BioAssay data set” (2004).

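Growth conditions: 96-well plates. Treatment: test compound, 48 hours, 5 concentrations. Analysis: linear interpolation between bracketing concentrations; unreached endpoints set to highest concentration. At the GI50, growth is halved.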 Active and inactive are the calls of the source. Rule as the data show it: active = GI50 up to about 1.1 µM and inactive = higher.

The term GI50 denotes the concentration at which growth is held to half of that of the control.

Among the test systems are A498; ACHN; CCRF-CEM; COLO 205; DU-145; HCT-15; HL-60; HOP-92; HT-29; IGROV-1; M14; NCI-H522; OVCAR-4; OVCAR-5; SK-MEL-28; SNB-75; TK-10; UO-31; NCI-H226.
Holding throughout (assay): DTP human tumour cell line panel, 48 h

With `C[C@]1(O)O[C@@H]2OCC[C@@H]2C2=C1C(=O)c1ccccc1C2=O`, the GI50 in the test with A498 is 14.1 µM (inactive); in the test on ACHN, 17.7 µM (inactive); with CCRF-CEM, 15.4 µM (inactive); in the test on COLO 205 it was 24.9 µM (inactive); in the test on DU-145 it was 16.7 µM (inactive); in the test with HCT-15, 19 µM. Further, the GI50 with HL-60 was 12.3 µM (inactive); with HOP-92, 12.8 µM (inactive); in the test with HT-29 it was 29.9 µM (inactive); in the test on IGROV-1, 14.2 µM (inactive); with M14 it was 11.3 µM (inactive); in the test with NCI-H522, 16.6 µM (inactive). The GI50 in the test with OVCAR-4 is 12.5 µM (inactive); in the test with OVCAR-5, 17.3 µM (inactive); in the test with SK-MEL-28, 29.4 µM (inactive); with SNB-75 it was 29.6 µM (inactive); in the test with TK-10, 20.4 µM (inactive); in the test with UO-31, 17.9 µM (inactive).
As for `COc1cccc(C2c3cc4c(cc3OC3COC(=O)C32)OCO4)c1OC` (configuration not stated), the GI50 with A498 was > 100 µM (inactive); in the test with ACHN, > 100 µM (inactive); in the test with CCRF-CEM, > 100 µM (inactive); with COLO 205 it was > 100 µM (inactive); in the test on DU-145, > 100 µM (inactive); with HCT-15, 34.8 µM. Moreover, the GI50 in the test with HL-60 was 9.12 µM (inactive); in the test on HOP-92, 99.8 µM (inactive); in the test on HT-29, > 100 µM (inactive); in the test on IGROV-1, > 100 µM (inactive); with M14, > 100 µM (inactive); in the test with NCI-H226, > 100 µM (inactive). The GI50 is 64.6 µM (inactive) in the test on OVCAR-4; > 100 µM (inactive) in the test with OVCAR-5; > 100 µM (inactive) in the test on SK-MEL-28; 83.9 µM (inactive) with SNB-75; > 100 µM (inactive) in the test with TK-10; > 100 µM (inactive) in the test on UO-31.
`C/C(=C\COc1ccc2ccc(=O)oc2c1)C1=CC(=O)C(C)(C)O1` [GEIPARVARIN]: the GI50 is 4.6 µM (inactive) in the test with A498; 4.39 µM (inactive) in the test with ACHN; 1.51 µM (inactive) in the test with CCRF-CEM; 4.14 µM (inactive) in the test on COLO 205; 2.53 µM (inactive) with DU-145; 3.04 µM with HCT-15. In addition, the GI50 was 2.29 µM (inactive) with HL-60; 3.76 µM (inactive) with HOP-92; 4.01 µM (inactive) in the test on HT-29; 4.63 µM (inactive) in the test on IGROV-1; 4.04 µM (inactive) in the test on M14; 3.32 µM (inactive) with NCI-H226. In addition, the GI50 is 3.08 µM (inactive) in the test with OVCAR-4; 10.2 µM (inactive) in the test on OVCAR-5; 4.23 µM (inactive) in the test on SK-MEL-28; 5.01 µM (inactive) in the test on SNB-75; 5.07 µM (inactive) in the test on TK-10; 6.11 µM (inactive) in the test on UO-31.
Take `CCN1C(=O)c2ccccc2C1(O)c1ccc(Cl)cc1` (configuration not stated): the GI50 was > 100 µM (inactive) with A498; 46.5 µM (inactive) with ACHN; 59.8 µM (inactive) with CCRF-CEM; 35.6 µM (inactive) in the test on COLO 205; 80.2 µM (inactive) with DU-145; greater than 100 µM in the test with HCT-15. Further, the GI50 in the test with HL-60 is 30 µM (inactive); with HOP-92, > 100 µM (inactive); with HT-29 it was 41.9 µM (inactive); in the test with IGROV-1 it was 29.1 µM (inactive); in the test on M14, 59.4 µM (inactive); in the test on NCI-H226 it was 16.8 µM (inactive). Moreover, the GI50 is > 100 µM (inactive) in the test on OVCAR-4; 88.1 µM (inactive) in the test with OVCAR-5; 94 µM (inactive) in the test on SK-MEL-28; > 10 µM (inactive) in the test on SNB-75; 94.4 µM (inactive) in the test with TK-10; 53.5 µM (inactive) in the test with UO-31.
